Publication PMC11840923, “Kinetic and Thermodynamic Characterization of Human 4-Oxo-L-proline Reductase Catalysis” (Biochemistry, 2025)

Tests used:
[1] = target: T1, 4-oxo-L-proline reductase (HsBDH2) (Homo sapiens, UniProt Q9BUT1); test: ITC at […] °C, pH […] ([…] stoichiometry); also DSF and stopped-flow koff; format: binding
T1 construct: gene BDH2

[2] = target: T1, 4-oxo-L-proline reductase (HsBDH2); test: ITC at […] °C, pH […] (number of sites fixed at one); also DSF; format: binding

T1 sequence (Q9BUT1 whole entry): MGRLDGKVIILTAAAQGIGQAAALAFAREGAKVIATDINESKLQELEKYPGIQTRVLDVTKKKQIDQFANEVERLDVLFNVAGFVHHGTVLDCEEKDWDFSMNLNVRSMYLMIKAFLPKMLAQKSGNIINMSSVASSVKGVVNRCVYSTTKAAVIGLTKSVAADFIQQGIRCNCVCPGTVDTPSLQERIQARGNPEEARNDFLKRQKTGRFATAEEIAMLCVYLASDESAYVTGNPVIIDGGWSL

SMILES | Kd [1] [µM] | Kd [2] [µM]
NC(=O)C1=CN([C@@H]2O[C@H](COP(=O)(O)OP(=O)(O)OC[C@H]3O[C@@H](n4cnc5c(N)ncnc54)[C@H](O)[C@@H]3O)[C@@H](O)[C@H]2O)C=CC1 [NADH] | 0.48 | 
NC(=O)c1ccc[n+]([C@@H]2O[C@H](COP(=O)([O-])OP(=O)(O)OC[C@H]3O[C@@H](n4cnc5c(N)ncnc54)[C@H](O)[C@@H]3O)[C@@H](O)[C@H]2O)c1 [NAD^+] |  | 29
